Experimental findings from patent publication US20240166646A1, “1H-PYRROLO[2,3-B]PYRIDINE DERIVATIVES AS BCL-2 INHIBITORS FOR THE TREATMENT OF NEOPLASTIC AND AUTOIMMUNE DISEASES” (Newave Pharmaceutical Inc., priority 2020, published 2024) are described below.

Structures can show the parent of a compound that is named as a salt.

One test addresses Bcl-2 (Homo sapiens (Human), UniProt P10415). Kind of test: Bcl-2 competition binding (fluorescence polarization) assay. To be noted: fluorescein labeled BH3 peptide 15 nM, Bcl-2 protein 30 nM, 3 hours of incubation at room temperature. The method, then:
Biological Example 1: Bcl-2 Competition Binding (Fluorescence Polarization) Assay
The fluorescence-labeled 23 amino acid peptide BH3 was purchased from CalBiochem ([…]). […] This binding assay was performed in 96-well plate and with each assay contained 15 and 30 nM of labeled peptide and purified Bcl-2 protein (purchased from R&D Systems, Inc). The assay buffer contained 20 mM Hepes (pH 7.0), 50 mM KCl, 5 mM MgCl2, 20 mM Na2MoO4, 0.1 mg/mi Bovine Gamma Globulin and 0.01% NP40. Compounds were diluted in DMS0 and added to the final assay with concentration range from 20 μM to 2 nM. The polarization degree (mP) value was determined by BioTek Synergy II with background subtraction after 3 hours of incubation at room temperature. IC50 was calculated using Prism software with sigmoidal dose-response curve fitting. ABT-737 was used as reference compound. Such assays, carried out with a range of doses of test compounds, allowed the determination of an approximate IC50 value.

Test [1] concerns BCL-2-dependent acute lymphoblastic leukemia (ALL) cell line RS4; 11 with G101V mutation. The test is described as follows: In vitro anti-proliferation assay (ATPlite) in RS4; 11 with G101V mutation. It counts as cell-based. To be noted: about 72 hours incubation, medium with 5% FBS or 10% normal human serum, ATPlite luminescence. On the procedure:
Cell antiproliferation was assayed by PerkinElmer ATPlite™ Luminescence Assay System. Briefly, the various test cancer cell lines were plated at a density of about 1×10^4 cells per well in Costar 96-well plates, and were incubated with different concentrations of compounds for about 72 hours in medium supplemented with 5% FBS or 10% normal human serum (NHS). One lyophilized substrate solution vial was then reconstituted by adding 5 mL of substrate buffer solution, and was agitated gently until the solution was homogeneous. About 50 μL of mammalian cell lysis solution was added to 100 μL of cell suspension per well of a microplate, and the plate was shaken for about five minutes in an orbital shaker at ˜700 rpm. This procedure was used to lyse the cells and to stabilize the ATP. Next, 50 μL substrate solution was added to the wells and microplate was shaken for five minutes in an orbital shaker at ˜700 rpm. Finally, the luminescence was measured by a PerkinElmer TopCount® Microplate Scintillation Counter. Such assays, carried out with a range of doses of test compounds, allowed the determination of the cellular anti-antiproliferative IC50 of the compounds of the present invention.
A general note: Cellular ATP, detected with luciferase, serves as a proxy for viable cell number.

Bcl-2, sequence (P10415 whole entry): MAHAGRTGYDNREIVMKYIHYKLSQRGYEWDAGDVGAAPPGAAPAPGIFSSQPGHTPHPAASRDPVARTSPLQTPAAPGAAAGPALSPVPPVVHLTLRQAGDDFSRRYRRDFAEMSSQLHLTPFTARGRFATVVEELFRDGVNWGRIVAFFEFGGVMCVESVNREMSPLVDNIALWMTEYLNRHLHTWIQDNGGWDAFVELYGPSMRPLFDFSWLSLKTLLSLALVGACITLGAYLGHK

As a reminder, the IC50 is the concentration that inhibits the measured activity by half. For `CC(C)c1ccccc1[C@@H]1CCCN1C1CC2(CCN(c3ccc(C(=O)NS(=O)(=O)c4ccc(NCC5CCOCC5)c([N+](=O)[O-])c4)c(N4c5cc6cc[nH]c6nc5O[C@@H]5COC[C@H]54)c3)CC2)C1` [Example 1, 2-[(11R,15S)-13,16-dioxa-2,4,10-triazatetracyclo[7.7.0.0^[3,7]0.0^[11,15]]hexadeca-1(9),2,5,7-tetraen-10-yl]-4-[2-[(2S)-2-(2-isopropylphenyl)pyrrolidin-1-yl]-7-azaspiro[3.5]nonan-7-yl]-N-[3-nitro-4-[(oxan-4-ylmethyl)amino]benzenesulfonyl]benzamide], the IC50 was 0.1 nM at Bcl-2 and 5.1 nM in test [1].
On to `CC(C)c1ccccc1[C@@H]1CCCN1C1CC2(CCN(c3ccc(C(=O)NS(=O)(=O)c4ccc(NCC5CCOCC5)c([N+](=O)[O-])c4)c(N4c5cc6cc[nH]c6nc5O[C@H]5COC[C@@H]54)c3)CC2)C1` [Example 2, 2-[(11S,15R)-13,16-dioxa-2,4,10-triazatetracyclo[7.7.0.0^[3,7].0^[11,15]]hexadeca-1(9),2,5,7-tetraen-10-yl]-4-[2-[(2S)-2-(2-isopropylphenyl)pyrrolidin-1-yl]-7-azaspiro[3.5]nonan-7-yl]-N-[3-nitro-4-[(oxan-4-ylmethyl)amino]benzenesulfonyl]benzamide], for which the figures for the IC50 (on Bcl-2; in test [1]) were 0.22 nM and 66.7 nM, respectively.
As to `CC(C)c1ccccc1[C@@H]1CCCN1C1CC2(CCN(c3ccc(C(=O)NS(=O)(=O)c4ccc(NC[C@H]5CC[C@](C)(O)CC5)c([N+](=O)[O-])c4)c(N4c5cc6cc[nH]c6nc5O[C@@H]5COC[C@H]54)c3)CC2)C1` [Example 3-0A], the results for the IC50 (on Bcl-2; in test [1]) were 0.16 nM and 5.6 nM, respectively.
As to `CC(C)c1ccccc1[C@@H]1CCCN1C1CC2(CCN(c3ccc(C(=O)NS(=O)(=O)c4ccc(NC[C@H]5CC[C@@](C)(O)CC5)c([N+](=O)[O-])c4)c(N4c5cc6cc[nH]c6nc5O[C@@H]5COC[C@H]54)c3)CC2)C1` [Example 3-0B], the IC50 is 0.13 nM on Bcl-2 and 25 nM in test [1].
Turning to `Cc1ccccc1[C@@H]1CCCN1C1CC2(CCN(c3ccc(C(=O)NS(=O)(=O)c4ccc(NCC5CCOCC5)c([N+](=O)[O-])c4)c(N4c5cc6cc[nH]c6nc5O[C@@H]5COC[C@H]54)c3)CC2)C1` [Example 4, 2-[(11R,15S)-13,16-dioxa-2,4,10-triazatetracyclo[7.7.0.0^{3,7}.0^{11,15}]hexadeca-1(9),2,5,7-tetraen-10-yl]-4-{2-[(2S)-2-(2-methylphenyl)pyrrolidin-1-yl]-7-azaspiro[3.5]nonan-7-yl}-N-{3-nitro-4-[(oxan-4-ylmethyl)amino]benzenesulfonyl}benzamide], the IC50 at Bcl-2 came out at 0.183 nM; in test [1], 28.3 nM.
As for `C=C(C)c1ccccc1[C@@H]1CCCN1C1CC2(CCN(c3ccc(C(=O)NS(=O)(=O)c4ccc(NCC5CCOCC5)c([N+](=O)[O-])c4)c(N4c5cc6cc[nH]c6nc5O[C@@H]5COC[C@H]54)c3)CC2)C1` [Example 5, 2-[(11R,15S)-13,16-dioxa-2,4,10-triazatetracyclo[7.7.0.0^{3,7}.0^{11,15}]hexadeca-1(9),2,5,7-tetraen-10-yl]-N-{3-nitro-4-[(oxan-4-ylmethyl)amino]benzenesulfonyl}-4-{2-[(2S)-2-[2-(prop-1-en-2-yl)phenyl]pyrrolidin-1-yl]-7-azaspiro[3.5]nonan-7-yl}benzamide hydrochloride], the IC50 amounted to 0.067 nM at Bcl-2 and 9.5 nM in test [1].
Regarding `C=Cc1ccccc1[C@@H]1CCCN1C1CC2(CCN(c3ccc(C(=O)NS(=O)(=O)c4ccc(NCC5CCOCC5)c([N+](=O)[O-])c4)c(N4c5cc6cc[nH]c6nc5O[C@@H]5COC[C@H]54)c3)CC2)C1` [Example 6, 2-[(11R,15S)-13,16-dioxa-2,4,10-triazatetracyclo[7.7.0.0^{3,7}.0^{11,15}]hexadeca-1(9),2,5,7-tetraen-10-yl]-4-{2-[(2S)-2-(2-ethenylphenyl)pyrrolidin-1-yl]-7-azaspiro[3.5]nonan-7-yl}-N-{3-nitro-4-[(oxan-4-ylmethyl)amino]benzenesulfonyl}benzamide hydrochloride], the IC50 at Bcl-2 worked out at 0.083 nM; in test [1] it was 29 nM.
`CP(C)(=O)c1ccccc1[C@@H]1CCCN1C1CC2(CCN(c3ccc(C(=O)NS(=O)(=O)c4ccc(NCC5CCOCC5)c([N+](=O)[O-])c4)c(N4c5cc6cc[nH]c6nc5O[C@@H]5COC[C@H]54)c3)CC2)C1` [Example 29, 4-{2-[(2S)-2-[2-(dimethylphosphoryl)phenyl]pyrrolidin-1-yl]-7-azaspiro[3.5]nonan-7-yl}-2-[(11R,15S)-13,16-dioxa-2,4,10-triazatetracyclo[7.7.0.0^{3,7}.0^{11,15}]hexadeca-1(9),2,5,7-tetraen-10-yl]-N-{3-nitro-4-[(oxan-4-ylmethyl)amino]benzenesulfonyl}benzamide]: the IC50 at Bcl-2 was 1.39 nM.
In the case of `NC(=O)c1ccccc1[C@@H]1CCCN1C1CC2(CCN(c3ccc(C(=O)NS(=O)(=O)c4ccc(NCC5CCOCC5)c([N+](=O)[O-])c4)c(N4c5cc6cc[nH]c6nc5O[C@@H]5COC[C@H]54)c3)CC2)C1` [Example 30, 4-{2-[(2S)-2-(2-carbamoylphenyl)pyrrolidin-1-yl]-7-azaspiro[3.5]nonan-7-yl}-2-[(11R,15S)-13,16-dioxa-2,4,10-triazatetracyclo[7.7.0.0^{3,7}.0^{11,15}]hexadeca-1(9),2,5,7-tetraen-10-yl]-N-{3-nitro-4-[(oxan-4-ylmethyl)amino]benzenesulfonyl}benzamide], the IC50 at Bcl-2 worked out at 15.8 nM.
With `CC1(C)C[C@@H](c2ccccc2[C@@H]2CCCN2C2CC3(CCN(c4ccc(C(=O)NS(=O)(=O)c5ccc(NCC6CCOCC6)c([N+](=O)[O-])c5)c(N5c6cc7cc[nH]c7nc6O[C@@H]6COC[C@H]65)c4)CC3)C2)CCO1` [Example 31, 4-{2-[(2S)-2-{2-[(4S)-2,2-dimethyloxan-4-yl]phenyl}pyrrolidin-1-yl]-7-azaspiro[3.5]nonan-7-yl}-2-[(11R,15S)-13,16-dioxa-2,4,10-triazatetracyclo[7.7.0.0^{3,7}.0^{11,15}]hexadeca-1(9),2,5,7-tetraen-10-yl]-N-{3-nitro-4-[(oxan-4-ylmethyl)amino]benzenesulfonyl}benzamide], on Bcl-2, the IC50 came to 30.7 nM.
The same measure, in the same setting: to `CC1(C)C[C@H](c2ccccc2[C@@H]2CCCN2C2CC3(CCN(c4ccc(C(=O)NS(=O)(=O)c5ccc(NCC6CCOCC6)c([N+](=O)[O-])c5)c(N5c6cc7cc[nH]c7nc6O[C@@H]6COC[C@H]65)c4)CC3)C2)CCO1` [Example 32, 4-{2-[(2S)-2-{2-[(4R)-2,2-dimethyloxan-4-yl]phenyl}pyrrolidin-1-yl]-7-azaspiro[3.5]nonan-7-yl}-2-[(11R,15S)-13,16-dioxa-2,4,10-triazatetracyclo[7.7.0.0^{3,7}.0^{11,15}]hexadeca-1(9),2,5,7-tetraen-10-yl]-N-{3-nitro-4-[(oxan-4-ylmethyl)amino]benzenesulfonyl}benzamide] belongs 15.8 nM; to `O=C(NS(=O)(=O)c1ccc(NCC2CCOCC2)c([N+](=O)[O-])c1)c1ccc(N2CCC3(CC2)CC(N2CCC[C@H]2c2cccc(Cl)c2)C3)cc1N1c2cc3cc[nH]c3nc2O[C@@H]2COC[C@H]21` [Example 33, 4-{2-[(2S)-2-(3-chlorophenyl)pyrrolidin-1-yl]-7-azaspiro[3.5]nonan-7-yl}-2-[(11R,15S)-13,16-dioxa-2,4,10-triazatetracyclo[7.7.0.0^{3,7}.0^{11,15}]hexadeca-1(9),2,5,7-tetraen-10-yl]-N-{3-nitro-4-[(oxan-4-ylmethyl)amino]benzenesulfonyl}benzamide], 1.42 nM.
`O=C(NS(=O)(=O)c1ccc(NCC2CCOCC2)c([N+](=O)[O-])c1)c1ccc(N2CCC3(CC2)CC(N2CCC[C@H]2c2ccc(Cl)cc2)C3)cc1N1c2cc3cc[nH]c3nc2O[C@@H]2COC[C@H]21` [Example 34, 4-{2-[(2S)-2-(4-chlorophenyl)pyrrolidin-1-yl]-7-azaspiro[3.5]nonan-7-yl}-2-[(11R,15S)-13,16-dioxa-2,4,10-triazatetracyclo[7.7.0.0^{3,7}.0^{11,15}]hexadeca-1(9),2,5,7-tetraen-10-yl]-N-{3-nitro-4-[(oxan-4-ylmethyl)amino]benzenesulfonyl}benzamide]: the IC50 at Bcl-2 turned out to be 3.5 nM.
Still for that read-out and setting: to `CC(C)Cc1ccccc1[C@@H]1CCCN1C1CC2(CCN(c3ccc(C(=O)NS(=O)(=O)c4ccc(NCC5CCOCC5)c([N+](=O)[O-])c4)c(N4c5cc6cc[nH]c6nc5O[C@@H]5COC[C@H]54)c3)CC2)C1` [Example 35, 4-(2-((S)-2-(2-isobutylphenyl)pyrrolidin-1-yl)-7-azaspiro[3.5]nonan-7-yl)-N-((3-nitro-4-(((tetrahydro-2H-pyran-4-yl)methyl)amino)phenyl)sulfonyl)-2-((5aR,8aS)-5a,6,8,8a-tetrahydrofuro[3,4-b]pyrrolo[3′,2′:5,6]pyrido[3,2-e][1,4]oxazin-5(1H)-yl)benzamide] belongs 0.58 nM.
